These results are taken from PMC7531004, “Discovery of gramicidin A analogues with altered activities by multidimensional screening of a one-bead-one-compound library” (Nature Communications, 2020).

Data set [1] can be described thus: H+/Na+ transport assay of bead-derived peptides (one-point).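 Also: relative to parent gramicidin A activity set to 1.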 The data set is classed as biochemical. Also noted: key: relative activity; mean of two control wells = 1.00. To be noted: bead-derived peptide solution, EYPC/EYPG LUVs. Summed up: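 Values are normalized fluorescence, with Triton X-100 defining 100% and untreated LUVs 0%, and the two control wells averaging 1.00. Vesicles carried 1.0 mM pyranine and included egg yolk phosphatidylglycerol. Peptides were incubated with them 30 min at room temperature.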

For data set [2], the system named is Streptococcus pyogenes SSI-9. Nature of the data set: Antibacterial activity assay of bead-derived peptides (three concentrations). The data set is classed as cell-based. Also noted: key: +++: inhibition by the 640-fold diluted peptide solution; ++: inhibition by the 160-fold diluted solution; +: inhibition by the 40-fold diluted solution; -: no inhibition. Conditions: S. pyogenes, bead-derived peptide solution, three concentrations. The procedure, abridged:
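Growth inhibition scored visually as precipitated bacteria after 37 °C, 18 h incubation. Streptococcus pyogenes SSI-9 inoculum of 2 × 10^5 CFU in Ca2+/Mg2+-adjusted Mueller Hinton broth plus 5% laked horse blood; peptides tested at three levels: stock, 4-fold and 16-fold DMSO dilutions.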

The test system of data set [3] is P388 mouse leukemia cells. Conditions: 92 h. Summed up:
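Peptide stocks diluted 250× in growth medium; P388 cells 1 × 10^4 cells/mL final; 37 °C, 5% CO2, 92 h. WST-1 + 1-methoxy PMS, 4 h, A415. Output: % viability.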

Structures are written as SMILES. Where a SMILES comes first, the peptide text is derived from it. [ ]: non-standard residue; d: D form. The star is where a group is joined. NHCH2CH2OH = OCCN*; For = O=C*

As to `CC(C)C[C@@H](NC(=O)[C@H](C)NC(=O)CNC(=O)[C@@H](NC=O)C(C)C)C(=O)N[C@@H](C)C(=O)N[C@@H](C(=O)N[C@H](C(=O)N[C@@H](C(=O)N[C@@H](Cc1c[nH]c2ccccc12)C(=O)N[C@@H](C(=O)N[C@@H](Cc1c[nH]c2ccccc12)C(=O)N[C@H](CC(C)C)C(=O)N[C@@H](Cc1c[nH]c2ccccc12)C(=O)N[C@@H](C(=O)N[C@@H](Cc1c[nH]c2ccccc12)C(=O)NCCO)C(C)C)C(C)C)C(C)C)C(C)C)C(C)C` [compound 9036] (For-VGA[dL]A[dV]V[dV]W[dV]W[dL]W[dV]W-NHCH2CH2OH), the “H+/Na+ transport activity normalized against the value of 1 (1.00)” value (from here on “H+/Na+ transport activity normalized”) in data set [1] stood at 1.18. In data set [2], the antibacterial activity result is “+”. Also, in data set [3], the cell viability/% is on record as 94.7%.

Take `CC(C)C[C@@H](NC(=O)[C@H](Cc1c[nH]c2ccccc12)NC(=O)[C@H](NC(=O)[C@H](Cc1c[nH]c2ccccc12)NC(=O)[C@H](NC(=O)[C@H](Cc1c[nH]c2ccccc12)NC(=O)[C@H](NC(=O)[C@@H](NC(=O)[C@H](NC(=O)[C@H](C)NC(=O)[C@H](NC(=O)[C@H](C)NC(=O)CNC(=O)[C@@H](NC=O)C(C)C)C(C)C)[C@H](C)O)C(C)C)C(C)C)C(C)C)C(C)C)C(=O)N[C@@H](Cc1c[nH]c2ccccc12)C(=O)NCCO` [compound 9058] (For-VGA[dV]A[dT]V[dV]W[dV]W[dV]W[dL]W-NHCH2CH2OH): the “H+/Na+ transport activity normalized” value in data set [1] is given as 1.14. For the same molecule, in data set [2], the antibacterial activity result was “-”. Besides, the cell viability/% in data set [3] is reported as 58.0%.

`CC(C)C[C@@H](NC(=O)[C@H](Cc1c[nH]c2ccccc12)NC(=O)[C@H](NC(=O)[C@H](Cc1c[nH]c2ccccc12)NC(=O)[C@H](NC(=O)[C@H](Cc1c[nH]c2ccccc12)NC(=O)[C@@H](CC(C)C)NC(=O)[C@@H](NC(=O)[C@H](NC(=O)[C@H](C)NC(=O)[C@H](NC(=O)[C@H](C)NC(=O)CNC(=O)[C@@H](NC=O)C(C)C)[C@H](C)O)C(C)C)C(C)C)C(C)C)C(C)C)C(=O)N[C@@H](Cc1c[nH]c2ccccc12)C(=O)NCCO` [compound 9075] (For-VGA[dT]A[dV]V[dL]W[dV]W[dV]W[dL]W-NHCH2CH2OH): the “H+/Na+ transport activity normalized” value in data set [1] stood at 1.01. For the same molecule, the antibacterial activity result in data set [2] was “-”. For the same molecule, the cell viability/% in data set [3] worked out at 58.6%.

Regarding `CC(C)C[C@@H](NC(=O)[C@H](C)NC(=O)[C@H](NC(=O)[C@H](C)NC(=O)CNC(=O)[C@@H](NC=O)C(C)C)[C@H](C)O)C(=O)N[C@H](C(=O)N[C@@H](C(=O)N[C@@H](Cc1c[nH]c2ccccc12)C(=O)N[C@@H](C(=O)N[C@@H](Cc1c[nH]c2ccccc12)C(=O)N[C@H](CC(C)C)C(=O)N[C@@H](Cc1c[nH]c2ccccc12)C(=O)N[C@H](CC(C)C)C(=O)N[C@@H](Cc1c[nH]c2ccccc12)C(=O)NCCO)C(C)C)C(C)C)C(C)C` [compound 9112] (For-VGA[dT]A[dL]V[dV]W[dV]W[dL]W[dL]W-NHCH2CH2OH), the “H+/Na+ transport activity normalized” value in data set [1] was 1.10. The antibacterial activity entry in data set [2] is “-”. Moreover, in data set [3], the cell viability/% turned out to be 72.6%.

As to `CC(C)C[C@@H](NC(=O)[C@H](C)NC(=O)[C@H](NC(=O)[C@H](C)NC(=O)CNC(=O)[C@@H](NC=O)C(C)C)[C@H](C)O)C(=O)N[C@H](C(=O)N[C@H](CC(C)C)C(=O)N[C@@H](Cc1c[nH]c2ccccc12)C(=O)N[C@H](CC(C)C)C(=O)N[C@@H](Cc1c[nH]c2ccccc12)C(=O)N[C@@H](C(=O)N[C@@H](Cc1c[nH]c2ccccc12)C(=O)N[C@@H](C(=O)N[C@@H](Cc1c[nH]c2ccccc12)C(=O)NCCO)C(C)C)C(C)C)C(C)C` [compound 9125] (For-VGA[dT]A[dL]V[dL]W[dL]W[dV]W[dV]W-NHCH2CH2OH), the “H+/Na+ transport activity normalized” value in data set [1] is 1.04. The antibacterial activity entry in data set [2] is “-”. In data set [3], this molecule showed a cell viability/% of 44.2%.

In the case of `CC(C)C[C@@H](NC(=O)[C@H](C)NC(=O)[C@H](NC(=O)[C@H](C)NC(=O)CNC(=O)[C@@H](NC=O)C(C)C)[C@H](C)O)C(=O)N[C@H](C(=O)N[C@H](CC(C)C)C(=O)N[C@@H](Cc1c[nH]c2ccccc12)C(=O)N[C@@H](C(=O)N[C@@H](Cc1c[nH]c2ccccc12)C(=O)N[C@@H](C(=O)N[C@@H](Cc1c[nH]c2ccccc12)C(=O)N[C@H](CC(C)C)C(=O)N[C@@H](Cc1c[nH]c2ccccc12)C(=O)NCCO)C(C)C)C(C)C)C(C)C` [compound 9145] (For-VGA[dT]A[dL]V[dL]W[dV]W[dV]W[dL]W-NHCH2CH2OH), in data set [1], the “H+/Na+ transport activity normalized” value is reported as 1.03. Besides, the antibacterial activity result in data set [2] was “-”. The cell viability/% in data set [3] is reported as 70.9%.

On to `CC(C)C[C@@H](NC(=O)[C@H](C)NC(=O)[C@H](NC(=O)[C@H](C)NC(=O)CNC(=O)[C@@H](NC=O)C(C)C)C(C)C)C(=O)N[C@H](C(=O)N[C@@H](C(=O)N[C@@H](Cc1c[nH]c2ccccc12)C(=O)N[C@@H](C(=O)N[C@@H](Cc1c[nH]c2ccccc12)C(=O)N[C@@H](C(=O)N[C@@H](Cc1c[nH]c2ccccc12)C(=O)N[C@H](CC(C)C)C(=O)N[C@@H](Cc1c[nH]c2ccccc12)C(=O)NCCO)C(C)C)C(C)C)C(C)C)C(C)C` [compound 9192] (For-VGA[dV]A[dL]V[dV]W[dV]W[dV]W[dL]W-NHCH2CH2OH), for which, in data set [1], the “H+/Na+ transport activity normalized” value was 1.07. In addition, the antibacterial activity result in data set [2] is listed as “-”. The molecule also displayed a cell viability/% in data set [3] of 100.0%.

Consider `CC(C)C[C@@H](NC(=O)[C@H](C)NC(=O)CNC(=O)[C@@H](NC=O)C(C)C)C(=O)N[C@@H](C)C(=O)N[C@@H](C(=O)N[C@H](C(=O)N[C@@H](C(=O)N[C@@H](Cc1c[nH]c2ccccc12)C(=O)N[C@@H](C(=O)N[C@@H](Cc1c[nH]c2ccccc12)C(=O)N[C@@H](C(=O)N[C@@H](Cc1c[nH]c2ccccc12)C(=O)N[C@H](CC(C)C)C(=O)N[C@@H](Cc1c[nH]c2ccccc12)C(=O)NCCO)C(C)C)C(C)C)C(C)C)C(C)C)C(C)C` [compound 9223] (For-VGA[dL]A[dV]V[dV]W[dV]W[dV]W[dL]W-NHCH2CH2OH), for which, in data set [1], the “H+/Na+ transport activity normalized” value stood at 1.03. Further, the antibacterial activity entry in data set [2] is on record as “+”. This molecule also showed a cell viability/% in data set [3] of 100.0%.

`CNC(=O)C[C@@H](NC(=O)[C@@H](NC(=O)[C@@H](CC(C)C)NC(=O)[C@H](C)NC(=O)[C@H](NC(=O)[C@H](C)NC(=O)CNC(=O)[C@@H](NC=O)C(C)C)C(C)C)C(C)C)C(=O)N[C@@H](Cc1c[nH]c2ccccc12)C(=O)N[C@H](CC(C)C)C(=O)N[C@@H](Cc1c[nH]c2ccccc12)C(=O)N[C@H](CC(C)C)C(=O)N[C@@H](Cc1c[nH]c2ccccc12)C(=O)N[C@@H](C(=O)N[C@@H](Cc1c[nH]c2ccccc12)C(=O)NCCO)C(C)C` [compound 9229] (For-VGA[dV]A[dL]V[dD](NHMe)W[dL]W[dL]W[dV]W-NHCH2CH2OH): the “H+/Na+ transport activity normalized” value in data set [1] worked out at 1.15. In addition, the antibacterial activity result in data set [2] is “-”. This molecule also returned a cell viability/% in data set [3] of 100.0%.

Regarding `CC(C)C[C@@H](NC(=O)[C@H](Cc1c[nH]c2ccccc12)NC(=O)[C@H](NC(=O)[C@H](Cc1c[nH]c2ccccc12)NC(=O)[C@@H](CC(C)C)NC(=O)[C@H](Cc1c[nH]c2ccccc12)NC(=O)[C@H](NC(=O)[C@@H](NC(=O)[C@H](NC(=O)[C@H](C)NC(=O)[C@H](NC(=O)[C@H](C)NC(=O)CNC(=O)[C@@H](NC=O)C(C)C)C(C)C)C(C)C)C(C)C)C(C)C)C(C)C)C(=O)N[C@@H](Cc1c[nH]c2ccccc12)C(=O)NCCO` [compound 9293] (For-VGA[dV]A[dV]V[dV]W[dL]W[dV]W[dL]W-NHCH2CH2OH), in data set [1], the “H+/Na+ transport activity normalized” value is given as 1.05. In addition, in data set [2], the antibacterial activity entry is “++”. In data set [3], the cell viability/% was determined as 4.3%.

For `CNC(=O)C[C@@H](NC(=O)[C@@H](NC(=O)[C@H](NC(=O)[C@H](C)NC(=O)[C@@H](CC(C)C)NC(=O)[C@H](C)NC(=O)CNC(=O)[C@@H](NC=O)C(C)C)C(C)C)C(C)C)C(=O)N[C@@H](Cc1c[nH]c2ccccc12)C(=O)N[C@H](CC(C)C)C(=O)N[C@@H](Cc1c[nH]c2ccccc12)C(=O)N[C@H](CC(C)C)C(=O)N[C@@H](Cc1c[nH]c2ccccc12)C(=O)N[C@H](CC(C)C)C(=O)N[C@@H](Cc1c[nH]c2ccccc12)C(=O)NCCO` [compound 9336] (For-VGA[dL]A[dV]V[dD](NHMe)W[dL]W[dL]W[dL]W-NHCH2CH2OH), in data set [1], the “H+/Na+ transport activity normalized” value is 1.18. Further, the antibacterial activity result in data set [2] is on record as “-”. This molecule also yielded a cell viability/% in data set [3] of 100.0%.

For `CNC(=O)C[C@@H](NC(=O)[C@H](C)NC(=O)[C@@H](CC(C)C)NC(=O)[C@H](C)NC(=O)CNC(=O)[C@@H](NC=O)C(C)C)C(=O)N[C@H](C(=O)N[C@@H](C(=O)N[C@@H](Cc1c[nH]c2ccccc12)C(=O)N[C@H](CC(C)C)C(=O)N[C@@H](Cc1c[nH]c2ccccc12)C(=O)N[C@@H](C(=O)N[C@@H](Cc1c[nH]c2ccccc12)C(=O)N[C@H](CC(C)C)C(=O)N[C@@H](Cc1c[nH]c2ccccc12)C(=O)NCCO)C(C)C)C(C)C)C(C)C` [compound 9352] (For-VGA[dL]A[dD](NHMe)V[dV]W[dL]W[dV]W[dL]W-NHCH2CH2OH), in data set [1], the “H+/Na+ transport activity normalized” value worked out at 1.18. Besides, the antibacterial activity result in data set [2] is “-”. The cell viability/% in data set [3] was found to be 100.0%.
